Experimental data published in PMC11876601 (Molecular Systems Biology, 2025).
pEC50: −log10 of the molar value. Values joined by “and” are separate entries in the source; they are usually repeats but may differ in a detail not shown here. Equal values may be shown once. Read-outs that look alike come from different tables or passages of the source.

Tested on: AsPC-1 cells
Test: Cell proliferation assay, chemodrug + ATR inhibitor (Incucyte confluence, 72 h);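 note: underlying read-out for every value is AsPC-1 confluence after 72 h incubation at 37 °C and 5% CO2, divided by that well's starting confluence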
Conditions: for Curve slope / Curve bottom / Curve top: fitted dose-response curve; for Curve bottom / Curve top: relative response; for pEC50 / EC50: Homo sapiens
[1] = AsPC1, Experiment ATRi (ATR inhibitor alone)
[2] = AsPC1, Experiment GEM+ATRi_dose1
[3] = AsPC1, Experiment GEM+ATRi_dose2
[4] = AsPC1, Experiment GEM+ATRi_dose3

- pEC50 (ASPC1, 72 h, AsPC1, Experiment ATRi (ATR inhibitor alone), single replicates R1-R3): 5.74
- pEC50 (ASPC1, 72 h, read-out: EC50 (cell growth), ATR inhibitor as single agent): 5.76
- EC50 (ASPC1, 72 h, read-out: EC50 mean [nM], AsPC1, Experiment ATRi (ATR inhibitor alone), mean of replicates): 1720 nM
- EC50 (ASPC1, 72 h, read-out: pEC50, AsPC1 (converted), Experiment ATRi (ATR inhibitor alone), single replicates R1-R3): 1820 nM
- EC50 (ASPC1, read-out: EC50 mean [nM], AsPC1, Experiment ATRi (ATR inhibitor alone), mean of replicates): 1720 nM
SMILES: C[C@@H]1COCCN1c1cc(C2([S@](C)(=N)=O)CC2)nc(-c2cc[nH]c3nccc2-3)n1 [Ceralasertib]
- Curve slope [1]: 2.93 and 3.34 and 3.10
- Curve bottom [1]: 1.16 and 0.93 and 0.99
- Curve top [1]: 0.45 and 0.34 and 0.35
- Curve slope [2]: 1.26 and 1.52 and 1.58
- Curve bottom [2]: 1.03 and 0.96 and 0.97
- Curve top [2]: 0.53 and 0.41 and 0.45
- Curve bottom [3]: 1.06 and 0.94 and 0.90
- Curve top [3]: 0.50 and 0.38 and 0.42
- Curve slope [4]: 1.68 and 1.97
- Curve bottom [4]: 0.98
- Curve top [4]: 0.46 and 0.35 and 0.39
- Raw data (confluence at 72 h/confluence at 0 h) (Ceralasertib experiment, replicate R1, titrated drug dose 3 nM): 3.36
- Raw data (confluence at 72 h/confluence at 0 h) (Ceralasertib experiment, replicate R1, titrated drug dose 10 nM): 3.44
- Raw data (confluence at 72 h/confluence at 0 h) (Ceralasertib experiment, replicate R1, titrated drug dose 30 nM): 3.6
- Raw data (confluence at 72 h/confluence at 0 h) (Ceralasertib experiment, replicate R1, titrated drug dose 100 nM): 3.35
- Raw data (confluence at 72 h/confluence at 0 h) (Ceralasertib experiment, replicate R1, titrated drug dose 300 nM): 3.69
- Raw data (confluence at 72 h/confluence at 0 h) (Ceralasertib experiment, replicate R1, titrated drug dose 1000 nM): 3.19
- Raw data (confluence at 72 h/confluence at 0 h) (Ceralasertib experiment, replicate R1, titrated drug dose 3000 nM): 1.77
- Raw data (confluence at 72 h/confluence at 0 h) (Ceralasertib experiment, replicate R1, titrated drug dose 10000 nM): 1.38
- Raw data (confluence at 72 h/confluence at 0 h) (Ceralasertib experiment, replicate R2, titrated drug dose 3 nM): 3.66
- Raw data (confluence at 72 h/confluence at 0 h) (Ceralasertib experiment, replicate R2, titrated drug dose 10 nM): 3.73
- Raw data (confluence at 72 h/confluence at 0 h) (Ceralasertib experiment, replicate R2, titrated drug dose 30 nM): 3.9
- Raw data (confluence at 72 h/confluence at 0 h) (Ceralasertib experiment, replicate R2, titrated drug dose 100 nM): 2.91
- Raw data (confluence at 72 h/confluence at 0 h) (Ceralasertib experiment, replicate R2, titrated drug dose 300 nM): 3.91
- Raw data (confluence at 72 h/confluence at 0 h) (Ceralasertib experiment, replicate R2, titrated drug dose 1000 nM): 3.25
- Raw data (confluence at 72 h/confluence at 0 h) (Ceralasertib experiment, replicate R2, titrated drug dose 3000 nM): 1.61
- Response (GEM 0 nM, ATRi 100 nM): 3.13
- Response (GEM 0 nM, ATRi 300 nM): 3.19
- Response (GEM 0 nM, ATRi 1000 nM): 3.06
- Response (GEM 1 nM + ATRi 100 nM): 3.00
- Response (GEM 1 nM + ATRi 300 nM): 3.18
- Response (GEM 1 nM + ATRi 1000 nM): 2.76
- Response (GEM 3 nM + ATRi 100 nM): 3.15
- Response (GEM 3 nM + ATRi 300 nM): 3.26
- Response (GEM 3 nM + ATRi 1000 nM): 2.99
- Response (GEM 10 nM + ATRi 100 nM): 2.74
- Response (GEM 10 nM + ATRi 300 nM): 3.12
- Response (GEM 10 nM + ATRi 1000 nM): 2.13
- Response (GEM 30 nM + ATRi 100 nM): 2.24
- Response (GEM 30 nM + ATRi 300 nM): 2.10
- Response (GEM 100 nM + ATRi 100 nM): 1.89
- Response (GEM 100 nM + ATRi 1000 nM): 1.42
- Response (GEM 300 nM + ATRi 100 nM): 1.67
- Response (GEM 300 nM + ATRi 300 nM): 1.55
- Response (GEM 1000 nM + ATRi 100 nM): 1.60
- Response (GEM 1000 nM + ATRi 300 nM): 1.47
- Response (GEM 3000 nM + ATRi 100 nM): 1.61
- Response (GEM 3000 nM + ATRi 300 nM): 1.44
- Response (experiment ATRi, GEM 0 nM, ATRi 100 nM, AsPC1, replicates R2, R3): 1.95
- Response (experiment GEM+ATRi_dose1, GEM 0 nM, ATRi 100 nM, AsPC1, replicates R2, R3): 3.76 and 3.38
- Response (experiment GEM+ATRi_dose1, GEM 1 nM, ATRi 100 nM, AsPC1, replicates R2, R3): 3.75 and 3.44
- Response (experiment GEM+ATRi_dose1, GEM 3 nM, ATRi 100 nM, AsPC1, replicates R2, R3): 3.76 and 3.47
- Response (experiment GEM+ATRi_dose1, GEM 10 nM, ATRi 100 nM, AsPC1, replicates R2, R3): 3.43
- Response (experiment GEM+ATRi_dose1, GEM 30 nM, ATRi 100 nM, AsPC1, replicates R2, R3): 2.86 and 2.80
- Response (experiment GEM+ATRi_dose1, GEM 100 nM, ATRi 100 nM, AsPC1, replicates R2, R3): 1.90 and 2.07
- Response (experiment GEM+ATRi_dose1, GEM 300 nM, ATRi 100 nM, AsPC1, replicates R2, R3): 1.72 and 1.75
- Response (experiment GEM+ATRi_dose1, GEM 1000 nM, ATRi 100 nM, AsPC1, replicates R2, R3): 1.62 and 1.67
- Response (experiment GEM+ATRi_dose1, GEM 3000 nM, ATRi 100 nM, AsPC1, replicates R2, R3): 1.55 and 1.53
- Response (experiment GEM+ATRi_dose2, GEM 0 nM, ATRi 300 nM, AsPC1, replicates R2, R3): 3.86 and 3.56
- Response (experiment GEM+ATRi_dose2, GEM 1 nM, ATRi 300 nM, AsPC1, replicates R2, R3): 3.53 and 2.33
- Response (experiment GEM+ATRi_dose2, GEM 3 nM, ATRi 300 nM, AsPC1, replicates R2, R3): 3.61 and 3.55
- Response (experiment GEM+ATRi_dose2, GEM 10 nM, ATRi 300 nM, AsPC1, replicates R2, R3): 3.45 and 3.38
- Response (experiment GEM+ATRi_dose2, GEM 30 nM, ATRi 300 nM, AsPC1, replicates R2, R3): 2.30
- Response (experiment GEM+ATRi_dose2, GEM 100 nM, ATRi 300 nM, AsPC1, replicates R2, R3): 1.61
- Response (experiment GEM+ATRi_dose2, GEM 300 nM, ATRi 300 nM, AsPC1, replicates R2, R3): 1.48 and 1.53
- Response (experiment GEM+ATRi_dose2, GEM 1000 nM, ATRi 300 nM, AsPC1, replicates R2, R3): 1.52 and 1.48
- Response (experiment GEM+ATRi_dose2, GEM 3000 nM, ATRi 300 nM, AsPC1, replicates R2, R3): 1.45
- Response (experiment GEM+ATRi_dose3, GEM 0 nM, ATRi 1000 nM, AsPC1, replicates R2, R3): 3.10 and 2.81
- Response (experiment GEM+ATRi_dose3, GEM 1 nM, ATRi 1000 nM, AsPC1, replicates R2, R3): 3.14 and 2.98
- Response (experiment GEM+ATRi_dose3, GEM 3 nM, ATRi 1000 nM, AsPC1, replicates R2, R3): 2.92
- Response (experiment GEM+ATRi_dose3, GEM 10 nM, ATRi 1000 nM, AsPC1, replicates R2, R3): 2.52 and 2.34
- Response (experiment GEM+ATRi_dose3, GEM 30 nM, ATRi 1000 nM, AsPC1, replicates R2, R3): 1.76 and 1.67
- Response (experiment GEM+ATRi_dose3, GEM 100 nM, ATRi 1000 nM, AsPC1, replicates R2, R3): 1.44
- Response (experiment GEM+ATRi_dose3, GEM 1000 nM, ATRi 1000 nM, AsPC1, replicates R2, R3): 1.42
- Raw data (confluence at 72 h/confluence at 0 h) (titrated drug dose 3 nM, replicate R3, experiment (ATRi) Ceralasertib, AsPC-1, 72 h): 3.28
- Raw data (confluence at 72 h/confluence at 0 h) (titrated drug dose 10 nM, replicate R3, experiment (ATRi) Ceralasertib, AsPC-1, 72 h): 3.61
- Raw data (confluence at 72 h/confluence at 0 h) (titrated drug dose 30 nM, replicate R3, experiment (ATRi) Ceralasertib, AsPC-1, 72 h): 3.58
- Raw data (confluence at 72 h/confluence at 0 h) (titrated drug dose 300 nM, replicate R3, experiment (ATRi) Ceralasertib, AsPC-1, 72 h): 3.61
- Raw data (confluence at 72 h/confluence at 0 h) (titrated drug dose 1000 nM, replicate R3, experiment (ATRi) Ceralasertib, AsPC-1, 72 h): 3.17
- Raw data (confluence at 72 h/confluence at 0 h) (titrated drug dose 3000 nM, replicate R3, experiment (ATRi) Ceralasertib, AsPC-1, 72 h): 1.6
- Raw data (confluence at 72 h/confluence at 0 h) (titrated drug dose 10000 nM, replicate R3, experiment (ATRi) Ceralasertib, AsPC-1, 72 h): 1.25
